Test results from patent US20020137929A1, “1 - (3-heterocyclylphenyl) isothiourea, -isourea, -guanidine and -amidine herbicidal agents” (Intellectual Property Department, BASF Aktiengesellschaft, priority 1998, published 2002).

Key:
MOOVA (Monochoria) = experiment: Postemergence weed control under flooded paddy conditions; format: in vivo, Monochoria vaginalis; settings: postemergence weeds
In short: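 Containers holding 3–5 cm weeds and rice at 1.5–2.5 leaves are flooded to 1.5–3 cm above soil. Compound in 50/50 v/v aqueous/acetone is then added directly to the water, about 0.0313–0.500 kg/ha. Plants are kept in the greenhouse and rated 0–9 visually at 3–4 weeks.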

[1] = test system: CHEAL (Lambsquarters, Common); experiment: Postemergence herbicidal evaluation; format: in vivo, Chenopodium album; settings: postemergence
In short: (§1)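 Compound is applied as a foliar spray to seedlings about two weeks old, formulated in equal parts acetone and water with 0.5% TWEEN 20 and delivered at 40 psi to give about 0.0156–0.500 kg per hectare. Injury is rated visually 0–9 after four to five weeks.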

CASOB (Sicklepod) = experiment: Postemergence herbicidal evaluation; format: in vivo, Cassia obtusifolia; settings: postemergence
In short: as §1

[2] = test system: TRZAWR (Wheat, Winter, cv Riband); experiment: Postemergence herbicidal evaluation; format: in vivo, Triticum aestivum; settings: postemergence
In short: as §1

[3] = test system: CHEAL (Lambsquarters, Common); experiment: Preemergence herbicidal evaluation; format: in vivo, Chenopodium album; settings: rated 4-5 weeks after treatment
In short: (§2)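 Greenhouse preemergence test: seed-soil mix sown on ~1 inch soil; aqueous acetone spray at equivalent of ~0.0156–0.500 kg/ha; greenhouse-held and watered; scored 0–9 visually at 4–5 weeks.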

ORYSAT (Rice, Tebonnet) = experiment: Preemergence herbicidal evaluation; format: in vivo, Oryza sativa, (L.) Tebonnet; settings: rated 4-5 weeks after treatment
In short: as §2

[4] = rate 0.0313 kg/ha, 3-4 weeks after treatment
[5] = rate 0.0625 kg/ha, 3-4 weeks after treatment
[6] = rate 0.1250 kg/ha, 3-4 weeks after treatment
[7] = rate 0.2500 kg/ha, 3-4 weeks after treatment

CCOC(=O)CN1C(=O)C(CC)SC1=Nc1cc(-n2c(=O)cc(C(F)(F)F)n(C)c2=O)c(F)cc1Cl (centres unmarked) [Compound 13, Ethyl 2-{{2-chloro-5-[3,6-dihydro-3-methyl-2,6-dioxo-4-(trifluoromethyl)-1(2H)-pyrimidinyl]-4-fluorophenyl}imino}-5-ethyl-4-oxo-3-thiazolidineacetate]
Herbicidal rating MOOVA (MOOVA (Monochoria); [4]): 9.0
Herbicidal rating MOOVA (MOOVA (Monochoria); [5]): 9.0
Herbicidal rating MOOVA (MOOVA (Monochoria); [6]): 9.0
Herbicidal rating MOOVA (MOOVA (Monochoria); [7]): 9.0
CHEAL herbicidal rating ([1]; rate 0.0156 kg/ha): 9.0
CHEAL herbicidal rating ([1]; rate 0.0313 kg/ha): 8.0
CHEAL herbicidal rating ([1]; rate 0.0625 kg/ha): 9.0
CHEAL herbicidal rating ([1]; rate 0.1250 kg/ha): 9.0
CASOB herbicidal rating (CASOB (Sicklepod); rate 0.0156 kg/ha): 0.0
CASOB herbicidal rating (CASOB (Sicklepod); rate 0.0313 kg/ha): 0.0
CASOB herbicidal rating (CASOB (Sicklepod); rate 0.0625 kg/ha): 3.0
CASOB herbicidal rating (CASOB (Sicklepod); rate 0.1250 kg/ha): 3.0
TRZAWR herbicidal rating ([2]; rate 0.0156 kg/ha): 4.5
TRZAWR herbicidal rating ([2]; rate 0.0313 kg/ha): 4.5
TRZAWR herbicidal rating ([2]; rate 0.0625 kg/ha): 6.0
TRZAWR herbicidal rating ([2]; rate 0.1250 kg/ha): 6.0
CHEAL preemergence herbicidal rating ([3]; rate 0.0156 kg/ha): 9.0
CHEAL preemergence herbicidal rating ([3]; rate 0.0313 kg/ha): 9.0
CHEAL preemergence herbicidal rating ([3]; rate 0.0625 kg/ha): 9.0
CHEAL preemergence herbicidal rating ([3]; rate 0.1250 kg/ha): 9.0
CHEAL preemergence herbicidal rating ([3]; rate 0.2500 kg/ha): 9.0
ORYSAT preemergence herbicidal rating (ORYSAT (Rice, Tebonnet); rate 0.0156 kg/ha): 0.0
ORYSAT preemergence herbicidal rating (ORYSAT (Rice, Tebonnet); rate 0.0313 kg/ha): 0.0
ORYSAT preemergence herbicidal rating (ORYSAT (Rice, Tebonnet); rate 0.0625 kg/ha): 0.0
ORYSAT preemergence herbicidal rating (ORYSAT (Rice, Tebonnet); rate 0.1250 kg/ha): 3.0
ORYSAT preemergence herbicidal rating (ORYSAT (Rice, Tebonnet); rate 0.2500 kg/ha): 4.0

C=CCN1C(=O)CSC1=Nc1cc(-n2c(=O)cc(C(F)(F)F)n(C)c2=O)c(F)cc1Cl [Compound 27]
Herbicidal rating MOOVA (MOOVA (Monochoria); [4]): 9.0
Herbicidal rating MOOVA (MOOVA (Monochoria); [5]): 9.0
Herbicidal rating MOOVA (MOOVA (Monochoria); [6]): 9.0
Herbicidal rating MOOVA (MOOVA (Monochoria); [7]): 9.0
CHEAL herbicidal rating ([1]; rate 0.0158 kg/ha): 6.0
CHEAL herbicidal rating ([1]; rate 0.0315 kg/ha): 6.0
CHEAL herbicidal rating ([1]; rate 0.0630 kg/ha): 9.0
CASOB herbicidal rating (CASOB (Sicklepod); rate 0.0158 kg/ha): 1.0
CASOB herbicidal rating (CASOB (Sicklepod); rate 0.0315 kg/ha): 1.0
CASOB herbicidal rating (CASOB (Sicklepod); rate 0.0630 kg/ha): 1.0
TRZAWR herbicidal rating ([2]; rate 0.0158 kg/ha): 3.0
TRZAWR herbicidal rating ([2]; rate 0.0315 kg/ha): 4.0
TRZAWR herbicidal rating ([2]; rate 0.0630 kg/ha): 4.5
Preemergence herbicidal rating CHEAL ([3]; rate 0.0156 kg/ha): 0.0
Preemergence herbicidal rating CHEAL ([3]; rate 0.0313 kg/ha): 9.0
Preemergence herbicidal rating CHEAL ([3]; rate 0.0625 kg/ha): 9.0
Preemergence herbicidal rating CHEAL ([3]; rate 0.1250 kg/ha): 9.0
Preemergence herbicidal rating CHEAL ([3]; rate 0.2500 kg/ha): 9.0
Preemergence herbicidal rating ORYSAT (ORYSAT (Rice, Tebonnet); rate 0.0156 kg/ha): 0.0
Preemergence herbicidal rating ORYSAT (ORYSAT (Rice, Tebonnet); rate 0.0313 kg/ha): 0.0
Preemergence herbicidal rating ORYSAT (ORYSAT (Rice, Tebonnet); rate 0.0625 kg/ha): 3.0
Preemergence herbicidal rating ORYSAT (ORYSAT (Rice, Tebonnet); rate 0.1250 kg/ha): 3.0
Preemergence herbicidal rating ORYSAT (ORYSAT (Rice, Tebonnet); rate 0.2500 kg/ha): 8.0

COC(=O)CN1C(=O)CSC1=Nc1cc(-n2c(=O)cc(C(F)(F)F)n(C)c2=O)c(F)cc1Cl [Compound 17, Methyl 2-{{2-chloro-5-[3,6-dihydro-3-methyl-2,6-dioxo-4-(trifluoromethyl)-1(2H)-pyrimidinyl]-4-fluorophenyl}imino}-4-oxo-3-thiazolidineacetate]
Herbicidal rating MOOVA (MOOVA (Monochoria); [4]): 9.0
Herbicidal rating MOOVA (MOOVA (Monochoria); [5]): 9.0
Herbicidal rating MOOVA (MOOVA (Monochoria); [6]): 9.0
Herbicidal rating MOOVA (MOOVA (Monochoria); [7]): 9.0
CHEAL herbicidal rating ([1]; rate 0.0156 kg/ha): 2.5
CHEAL herbicidal rating ([1]; rate 0.0313 kg/ha): 3.0
CHEAL herbicidal rating ([1]; rate 0.0625 kg/ha): 4.0
CHEAL herbicidal rating ([1]; rate 0.1250 kg/ha): 8.0
CASOB herbicidal rating (CASOB (Sicklepod); rate 0.0156 kg/ha): 0.0
CASOB herbicidal rating (CASOB (Sicklepod); rate 0.0313 kg/ha): 1.0
CASOB herbicidal rating (CASOB (Sicklepod); rate 0.0625 kg/ha): 1.0
CASOB herbicidal rating (CASOB (Sicklepod); rate 0.1250 kg/ha): 5.5
TRZAWR herbicidal rating ([2]; rate 0.0156 kg/ha): 3.3
TRZAWR herbicidal rating ([2]; rate 0.0313 kg/ha): 4.5
TRZAWR herbicidal rating ([2]; rate 0.0625 kg/ha): 5.5
TRZAWR herbicidal rating ([2]; rate 0.1250 kg/ha): 7.3
CHEAL preemergence herbicidal rating ([3]; rate 0.0156 kg/ha): 4.5
CHEAL preemergence herbicidal rating ([3]; rate 0.0313 kg/ha): 6.0
CHEAL preemergence herbicidal rating ([3]; rate 0.0625 kg/ha): 9.0
CHEAL preemergence herbicidal rating ([3]; rate 0.1250 kg/ha): 9.0
CHEAL preemergence herbicidal rating ([3]; rate 0.2500 kg/ha): 9.0
CHEAL preemergence herbicidal rating ([3]; rate 0.5000 kg/ha): 9.0
ORYSAT preemergence herbicidal rating (ORYSAT (Rice, Tebonnet); rate 0.0156 kg/ha): 0.0
ORYSAT preemergence herbicidal rating (ORYSAT (Rice, Tebonnet); rate 0.0313 kg/ha): 0.0
ORYSAT preemergence herbicidal rating (ORYSAT (Rice, Tebonnet); rate 0.0625 kg/ha): 1.0
ORYSAT preemergence herbicidal rating (ORYSAT (Rice, Tebonnet); rate 0.1250 kg/ha): 1.0
ORYSAT preemergence herbicidal rating (ORYSAT (Rice, Tebonnet); rate 0.2500 kg/ha): 3.3
ORYSAT preemergence herbicidal rating (ORYSAT (Rice, Tebonnet); rate 0.5000 kg/ha): 6.5

Cn1c(C(F)(F)F)cc(=O)n(-c2cc(N=C3SCC(=O)N3CC(=O)OCC#N)c(Cl)cc2F)c1=O [Compound 109, 2-{{2-Chloro-5-[3,6-dihydro-3-methyl-2,6-dioxo-4-(trifluoromethyl)-1(2H)-pyrimidinyl]-4-fluorophenyl}imino}-4-oxo-3-thiazolidineacetic acid, ester with glycolonitrile]
Herbicidal rating MOOVA (MOOVA (Monochoria); Rate 0.0313 kg/ha, rated 3 to 4 weeks after treatment): 2.0
Herbicidal rating MOOVA (MOOVA (Monochoria); Rate 0.0625 kg/ha, rated 3 to 4 weeks after treatment): 4.0
Herbicidal rating MOOVA (MOOVA (Monochoria); Rate 0.1250 kg/ha, rated 3 to 4 weeks after treatment): 9.0
Herbicidal rating MOOVA (MOOVA (Monochoria); Rate 0.2500 kg/ha, rated 3 to 4 weeks after treatment): 9.0
herbicidal rating CHEAL ([1]; rate 0.0158 kg/ha): 9.0
herbicidal rating CHEAL ([1]; rate 0.0315 kg/ha): 9.0
herbicidal rating CHEAL ([1]; rate 0.0630 kg/ha): 9.0
herbicidal rating CASOB (CASOB (Sicklepod); rate 0.0158 kg/ha): 1.0
herbicidal rating CASOB (CASOB (Sicklepod); rate 0.0315 kg/ha): 7.0
herbicidal rating CASOB (CASOB (Sicklepod); rate 0.0630 kg/ha): 9.0
herbicidal rating TRZAWR ([2]; rate 0.0158 kg/ha): 3.0
herbicidal rating TRZAWR ([2]; rate 0.0315 kg/ha): 4.0
herbicidal rating TRZAWR ([2]; rate 0.0630 kg/ha): 4.5
Preemergence herbicidal rating CHEAL ([3]; rate 0.0156 kg/ha): 9.0
Preemergence herbicidal rating CHEAL ([3]; rate 0.0313 kg/ha): 9.0
Preemergence herbicidal rating CHEAL ([3]; rate 0.0625 kg/ha): 9.0
Preemergence herbicidal rating CHEAL ([3]; rate 0.1250 kg/ha): 9.0
Preemergence herbicidal rating CHEAL ([3]; rate 0.2500 kg/ha): 9.0
Preemergence herbicidal rating CHEAL ([3]; rate 0.5000 kg/ha): 9.0
Preemergence herbicidal rating ORYSAT (ORYSAT (Rice, Tebonnet); rate 0.0156 kg/ha): 0.0
Preemergence herbicidal rating ORYSAT (ORYSAT (Rice, Tebonnet); rate 0.0313 kg/ha): 1.0
Preemergence herbicidal rating ORYSAT (ORYSAT (Rice, Tebonnet); rate 0.0625 kg/ha): 2.0
Preemergence herbicidal rating ORYSAT (ORYSAT (Rice, Tebonnet); rate 0.1250 kg/ha): 4.0
Preemergence herbicidal rating ORYSAT (ORYSAT (Rice, Tebonnet); rate 0.2500 kg/ha): 5.0
Preemergence herbicidal rating ORYSAT (ORYSAT (Rice, Tebonnet); rate 0.5000 kg/ha): 6.0

CC1SC(=Nc2cc(-n3c(=O)cc(C(F)(F)F)n(C)c3=O)c(F)cc2Cl)N(C)C1=O (centres unmarked) [Compound 9]
Herbicidal rating MOOVA (MOOVA (Monochoria); [4]): 9.0
Herbicidal rating MOOVA (MOOVA (Monochoria); [5]): 9.0
Herbicidal rating MOOVA (MOOVA (Monochoria); [6]): 9.0
Herbicidal rating MOOVA (MOOVA (Monochoria); [7]): 9.0
CHEAL herbicidal rating ([1]; rate 0.0156 kg/ha): 6.5
CHEAL herbicidal rating ([1]; rate 0.0313 kg/ha): 6.0
CHEAL herbicidal rating ([1]; rate 0.0625 kg/ha): 9.0
CHEAL herbicidal rating ([1]; rate 0.1250 kg/ha): 9.0
CASOB herbicidal rating (CASOB (Sicklepod); rate 0.0156 kg/ha): 0.0
CASOB herbicidal rating (CASOB (Sicklepod); rate 0.0313 kg/ha): 1.0
CASOB herbicidal rating (CASOB (Sicklepod); rate 0.0625 kg/ha): 2.0
CASOB herbicidal rating (CASOB (Sicklepod); rate 0.1250 kg/ha): 4.5
TRZAWR herbicidal rating ([2]; rate 0.0156 kg/ha): 3.3
TRZAWR herbicidal rating ([2]; rate 0.0313 kg/ha): 3.5
TRZAWR herbicidal rating ([2]; rate 0.0625 kg/ha): 4.3
TRZAWR herbicidal rating ([2]; rate 0.1250 kg/ha): 5.0
CHEAL preemergence herbicidal rating ([3]; rate 0.0156 kg/ha): 9.0
CHEAL preemergence herbicidal rating ([3]; rate 0.0313 kg/ha): 9.0
CHEAL preemergence herbicidal rating ([3]; rate 0.0625 kg/ha): 9.0
CHEAL preemergence herbicidal rating ([3]; rate 0.1250 kg/ha): 9.0
CHEAL preemergence herbicidal rating ([3]; rate 0.2500 kg/ha): 9.0
ORYSAT preemergence herbicidal rating (ORYSAT (Rice, Tebonnet); rate 0.0156 kg/ha): 5.5
ORYSAT preemergence herbicidal rating (ORYSAT (Rice, Tebonnet); rate 0.0313 kg/ha): 8.5
ORYSAT preemergence herbicidal rating (ORYSAT (Rice, Tebonnet); rate 0.0625 kg/ha): 7.5
ORYSAT preemergence herbicidal rating (ORYSAT (Rice, Tebonnet); rate 0.1250 kg/ha): 9.0
ORYSAT preemergence herbicidal rating (ORYSAT (Rice, Tebonnet); rate 0.2500 kg/ha): 9.0
